Article PMC9516243, “Design of stapled peptide-based PROTACs for MDM2/MDMX atypical degradation and tumor suppression” (Theranostics, 2022)
pKi: −log10 of the molar value. Values joined by “and” are separate entries in the source; they are usually repeats but may differ in a detail not shown here. Identical values can stand only once.

What was measured:
[1] = circular dichroism; details: phosphate buffer (PB); pH 7.2; 20 °C; 10-50 uM
[2] = system: HCT116 p53^+/+ cells; test: Cell viability assay (CCK-8); assay type: cell-based, human; details: CCK-8, 72 h incubation, absorbance 450 nm; read-out: IC50 (μM) HCT116 p53^+/+
Method: (§1) The human colon carcinoma cell line HCT116 p53^+/+ was obtained from the Cell Bank of the Chinese Academy of Sciences (Shanghai, China). HCT116 p53^-/- cells were generously provided by Prof. Vogelstein of Johns Hopkins University. Both cell lines were cultured in McCoy's 5A medium (Gibco, USA) containing 10% FBS, 100 units/ml penicillin, and 100 μg/ml streptomycin at 37 °C in a humidified incubator containing 5% CO2. Cell viability was measured using a Cell Counting Kit-8 (CCK-8) (Dojindo, Kumamoto, Japan) according to the manufacturer's instructions. In brief, the cells (5 × 10^3 cells/well in […] medium) were cultured for 24 h in 96-well microplates in a humidified 5% CO2 incubator at 37 °C and then treated with varying concentrations of compounds or 0.1% DMSO vehicle control.

[3] = system: HCT116 p53^-/- cells; test: Cell viability assay (CCK-8); assay type: cell-based, human; details: CCK-8, 72 h incubation, absorbance 450 nm; read-out: IC50 (μM) HCT116 p53^-/-
Method: as §1

[4] = molecular target: T1, ^24-108MDMX (Homo sapiens, UniProt O15151); test: FP-based competitive binding assay; details: MDMX 40 nM, fluorescently tagged p53 peptide 20 nM, PBS pH 7.4, 30 min room temperature; mean of three independent measurements
T1 construct: ^24-108MDMX, and a fluorescently tagged p53-derived peptide
T1 sequence (O15151 24-108): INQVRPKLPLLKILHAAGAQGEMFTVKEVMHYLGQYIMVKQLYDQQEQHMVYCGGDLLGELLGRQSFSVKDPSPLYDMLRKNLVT
Method: (§2) An FP-based competitive or binding assay was established using ^25-109MDM2, ^24-108MDMX, and a fluorescently tagged p53-derived peptide as previously described. [34]-[36] For dose-dependent competitive binding experiments, MDM2 or MDMX protein (40 nM) was first incubated with TAMRA-p53 peptide (20 nM) in PBS (pH 7.4) on a Costar 96-well plate, to which a serially diluted solution of test peptide was added to a final volume of 125 μL. After 30 min of incubation at room temperature, the FP values were measured at λex = 530 nm and λem = 580 nm on a Tecan Infinite M1000 plate reader. For binding experiments, FITC-labeled SPMI-HIF2-1 (20 nM) was incubated with different concentrations of MDM2, MDMX, and VHL proteins. Curve fitting was performed using GraphPad Prism software, and Ki values were calculated as described previously. Three replicates and three independent experiments were performed.

[5] = molecular target: T2, ^25-109MDM2 (Homo sapiens, UniProt Q00987); test: FP-based competitive binding assay; details: MDM2 40 nM, fluorescently tagged p53 peptide 20 nM, PBS pH 7.4, 30 min room temperature; mean of three independent measurements
T2 construct: established using ^25-109MDM2, ^24-108MDMX
Method: as §2

[6] = α-Helicity by CD spectroscopy; assay type: physicochemical; details: PB pH 7.2, 10-50 µM peptide, 20°C, calculated from [θ]222
Method: Peptides were dissolved in PB (pH = 7.2) to concentrations ranging from 10 to 50 µM. CD spectra were obtained on a Jasco J-715 spectropolarimeter at 20°C. The spectra were collected using a 0.1 cm path length quartz cuvette with the following measurement parameters: wavelength, 185-255 nm; step resolution, 0.1 nm; speed, 20 nm/min; accumulations, 6; bandwidth, 1 nm. The helical content of each peptide was calculated as reported previously.

[7] = system: α-Chymotrypsin; test: Proteolytic stability against chymotrypsin; assay type: in vitro ADME; details: chymotrypsin 5 ng/μl (10 μl) added to 1 ml of 1 mM peptide, PBS 50 mM pH 7.4, 2 mM CaCl2, 25°C, HPLC, within 10 min, read-out: peptide digested within 10 min
Method: Peptides were dissolved in PBS (50 mM, pH = 7.4) to a final concentration of 1 mM. α-Chymotrypsin was dissolved in PBS (50 mM, containing 2 mM of CaCl2, pH = 7.4) to a final concentration of 5 ng/μl. Then the peptide solutions (1 ml) were incubated with […] (10 μl) at 25°C. Samples were taken at 0, 5, 30, 60, 90, and 120 min and reactions were quenched with 20 μL of hydrochloric acid (1 M). The solution of the trypsin peptide fragments was monitored by HPLC at different time points to determine the fraction of protease degradation.

[8] = Pharmacokinetic study; assay type: in vivo; details: mouse, iv, male ICR mice, 1.8 mg/kg single i.v. tail vein, plasma, UPLC-ESI-QqQ-MS, n = 5; for Cmax: mean; for half-life: read-out: half-life (t1/2) (converted)
Method: The peptides (1.8 mg/kg) were individually dosed in mice intravenously via tail vein injection and the blood samples were collected from the orbital venous plexus at 0, 0.5, 1, 2, 4, 6, 10, 24, and 48 h. All blood samples were centrifuged at 3000 rpm for 10 min, and the obtained plasma samples were immediately frozen at -80 °C until use. The standard curve was established as follows: Stock solutions of PMI-HIF1-1 and SPMI-HIF2-1 dissolved in acetonitrile were spiked into control plasma at final concentrations of 4000, 2000, 1000, 500, 250, 125, 62.5, 31.25, 15.625, 7.8125, 3.90625, 1.953125, and 0.9765625 ng/ml. […] Plasma samples (30 μL) were treated with 90 μL acetonitrile for protein precipitation. Then all samples were vortexed for 2 min and centrifuged for 15 min at 13000 rpm and 4°C. The supernatants were analyzed by ultraperformance liquid chromatography-electrospray ionization-tandem triple quadrupole mass spectrometry (UPLC-ESI-QqQ-MS, Shimadzu 8040). The system was equipped with an XBridge BEH C18 column (2.5 μm, 2.1×100 mm; Waters, Milford, MA, USA). The column temperature was set at 35°C. The injection volume was 4 μl. […] The plasma concentration at each time point was calculated from the extracted peak area of the same mass peaks of each peptide using the corresponding standard curve.

| Compound | helicity [1] | IC50 [2] | IC50 [3] | pKi [4] | pKi [5] | α-helicity (%) [6] | metabolised at 10 min, 1 mM [7] | Cmax [8] | AUC(0-inf) [8] | MRT [8] | half-life [8] |
| --- | --- | --- | --- | --- | --- | --- | --- | --- | --- | --- | --- |
| CC(=O)N[C@H](C(=O)N[C@@H](CO)C(=O)N[C@@H](Cc1ccccc1)C(=O)N[C@@H](C)C(=O)N[C@@H](CCC(=O)O)C(=O)N[C@@H](Cc1ccc(O)cc1)C(=O)N[C@@H](Cc1c[nH]c2ccccc12)C(=O)N[C@@H](C)C(=O)N[C@@H](CC(C)C)C(=O)N[C@@H](CC(C)C)C(=O)N[C@@H](CO)C(=O)NCCOCC(=O)N[C@@H](CC(C)C)C(=O)N[C@@H](C)C(=O)N1C[C@H](O)C[C@H]1C(=O)N[C@@H](Cc1ccc(O)cc1)C(=O)N[C@@H](CCC(C)C)C(=O)N1CCC[C@H]1C(N)=O)[C@@H](C)O [PMI-HIF1-1] | 17% | > 100 µM | > 100 µM | 6.54 and 6.21 | 6.35 | 17% | > 80% | 14.7 µg/mL | 8.6 µg·h/mL | 0.7 h | 1.3 h |
| CC(=O)N[C@H](C(=O)N[C@@H](CO)C(=O)N[C@@H](Cc1ccccc1)C(=O)N[C@]1(C)CCCCCCC=CCCC[C@@](C)(C(N)=O)NC(=O)[C@H](CC(C)C)NC(=O)[C@H](CC(C)C)NC(=O)[C@H](C)NC(=O)[C@H](Cc2c[nH]c3ccccc23)NC(=O)[C@H](Cc2ccc(O)cc2)NC(=O)[C@H](CCC(=O)O)NC1=O)[C@@H](C)O [SPMI2] |  | 28.4 µM | > 100 µM | 6.21 and 6.54 |  | 5% |  | 30 µg/mL | 78.6 µg·h/mL | 10.9 h | 7.9 h |
